# Data as given in patent US20230329282A1, “Application of 1-Deoxynojirimycin in Feed for Improving Nutritional Value and Sensory Effect of Rabbit Meat Products” (priority 2023, published 2023).
# Marks after values point to notes of the source that are not given here.
# Key:
# [1] = test system: New Zealand white rabbits; experiment: Fatty acid composition of rabbit meat by GC/MS; type: in vivo; details: 28 d
# From the text: The single-factor completely randomized test design is adopted. 36 45-day-old healthy New Zealand white rabbits (male) with the average weight of (1.05±0.04) kg are selected and randomly divided into 3 groups, and each group has 12 replicates with 1 rabbit per replicate. A control group is fed with a basal diet, an L-DNJ group is fed with the basal diet+0.14 g/kg DNJ, and an H-DNJ group is fed with the basal diet+0.28 g/kg DNJ. The diet is uniformly mixed to be prepared into cylindrical particles with the diameter of 6 mm and the length of 1 cm. The preliminary trial period is 14 d, and the trial period is 28 d. 10 g of meat sample is crushed, total fat is extracted after freeze-drying and converted to fatty acid methyl ester using a mixture of boron trifluoride, hexane and methanol (35:20:45 v/v), and then the fatty acid composition and content are measured with a gas chromatograph-mass spectrometer GC/MS (Model 7890-5975, Agilent Technologies, Inc.) with a 60 m×0.25 mm×0.25 μm capillary column. Gas chromatographic conditions are set as follows: the injector temperature is 220° C., and the detector temperature is 275° C.; and the initial column chamber temperature is 140° C. for 5 min, then increased to 240° C. at a rate of 4° C./min and maintained at 240° C. for 15 min. Finally, the fatty acid is measured with a […]. The ionization energy is 70 eV, the ion source temperature is 200° C., and the scanning range is 50-500 m/z. The retention time of each peak in the chromatogram is compared with that of a mixed standard of 37 fatty acid methyl esters (B25881, Shanghai Yuanye Bio-technology Co., Ltd.) to determine the properties of each peak. Three measurements are made for each sample, and the results are averaged.
# [2] = test system: New Zealand white rabbits; experiment: Meat quality of rabbit longissimus dorsi (pH, meat color, drip loss, shear force) after DNJ-supplemented diet; type: in vivo; details: 28 d; for Meat color Brightness L* / Meat color Redness a* / Meat color Yellowness b* / pH45min / pH24 h / pH24 h decreased: longissimus dorsi; for Drip loss: meat hung at 4° C. 24 h
# From the text: The single-factor completely randomized test design is adopted. 36 45-day-old healthy New Zealand white rabbits (male) with the average weight of (1.05±0.04) kg are selected and randomly divided into 3 groups, and each group has 12 replicates with 1 rabbit per replicate. A control group is fed with a basal diet, an L-DNJ group is fed with the basal diet+0.14 g/kg DNJ, and an H-DNJ group is fed with the basal diet+0.28 g/kg DNJ. The diet is uniformly mixed to be prepared into cylindrical particles with the diameter of 6 mm and the length of 1 cm. The preliminary trial period is 14 d, and the trial period is 28 d.
# Before the test, rabbit houses and cages are cleaned and disinfected, rabbits are immunized according to routine procedures, and the rabbit houses are naturally ventilated and illuminated. Each experimental rabbit is raised in a single cage and fed with a diet and water twice a day at fixed time (8:00 am and 17:00 pm), and is free to eat and drink.
# The rabbits are deprived of food (but not water) on the night of the end of the experiment, and after weighing in the next morning, 8 rabbits with similar weight are selected from each group and slaughtered. The longissimus dorsi muscles of the rabbits are collected, the pH values of the front, middle and back parts of the longissimus dorsi muscle are measured with a pH meter (Bante221, Shanghai Bante Instrument Co., Ltd.) having the function of automatic temperature compensation and then measured again after standing at room temperature for 24 h, and the pH decreased values of the muscle within 24 h are calculated. The pH value is the average value of the three readings. The meat color (L*, α*, b*) is measured with a TC-PIIG automatic color difference meter (Beijing Aoyike Photoelectric Instrument Co., Ltd.) on the muscle surface. The detection light source is D65 according to CIE laboratory standards, and the measurement area is 8 mm in diameter. The average value is obtained by making three measurements at each detection point.
# About 20 g of meat sample is weighed (demoted as M1), hung with a thin thread, and covered with a plastic bag with the mouth sealed, enough space is left inside to accommodate oozy water drops, and the meat sample is hung in a 4° C. refrigerator for 24 h. After being taken out, the meat sample is weighed (denoted as M2) after the surface moisture is absorbed with absorbent paper. 3 parallel samples are measured for each rabbit, and the results are averaged. Drip loss=(M1−M2)/M1×100%.
# Another meat sample is trimmed into a 1 cm×1 cm×2.5 cm meat strip, the shear force is measured in the direction perpendicular to the muscle fibers by a TMS-PRO texture analyzer (FTC Corporation, USA) for three times, and the results are averaged.
# [3] = H-DNJ: basal diet+0.28 g/kg DNJ
# [4] = L-DNJ: basal diet+0.14 g/kg DNJ
structure (smiles),measurement,setting,value
"OC[C@H]1NC[C@H](O)[C@@H](O)[C@@H]1O [DNJ, 1-deoxynojirimycin]",MUFA C16:1n7c in rabbit meat,[1]; [3],2.06%
same,MUFA C16:1n9c in rabbit meat,[1]; [3],0.42%
same,MUFA C17:1n7c in rabbit meat,[1]; [3],0.21%
same,MUFA C18:1n9c in rabbit meat,[1]; [3],23.01ª %
same,MUFA C18:1n9t in rabbit meat,[1]; [3],2.86ª %
same,MUFA C20:1n9t in rabbit meat,[1]; [3],0.24^a %
same,Monounsaturated fatty acid (MUFA) total,[1]; [3],27.13%
same,PUFA C16:3n4c in rabbit meat,[1]; [3],0.19ª %
same,PUFA C18:2n6c (linoleic acid) in rabbit meat,[1]; [3],31.77ª %
same,PUFA C20:2n6c in rabbit meat,[1]; [3],0.57^ab %
same,PUFA C20:3n6c in rabbit meat,[1]; [3],0.43%
same,PUFA C20:4n6c (arachidonic acid) in rabbit meat,[1]; [3],2.67ª %
same,PUFA C22:4n6c in rabbit meat,[1]; [3],0.31%
same,PUFA C22:5n6c (DPA) in rabbit meat,[1]; [3],0.13%
same,Polyunsaturated fatty acid (PUFA) total,[1]; [3],36.07ª %
same,SFA 9Methyl C14:0 in rabbit meat,[1]; [3],0.07%
same,SFA 12Methyl C13:0 in rabbit meat,[1]; [3],0.14^b %
same,SFA 13Methyl C14:0 in rabbit meat,[1]; [3],0.13ª %
same,SFA 14Methyl C15:0 in rabbit meat,[1]; [3],0.26%
same,SFA 14methyl C16:0 in rabbit meat,[1]; [3],0.10%
same,SFA C10:0 in rabbit meat,[1]; [3],0.25%
same,SFA C12:0 in rabbit meat,[1]; [3],0.92^b %
same,SFA C14:0 in rabbit meat,[1]; [3],2.14%
same,SFA C15:0 in rabbit meat,[1]; [3],0.53%
same,SFA C16:0 in rabbit meat,[1]; [3],26.52^b %
same,SFA C17:0 in rabbit meat,[1]; [3],0.52ª %
same,SFA C18:0 in rabbit meat,[1]; [3],5.11^b %
same,SFA C20:0 in rabbit meat,[1]; [3],0.11%
same,Saturated fatty acid (SFA) total,[1]; [3],36.75^b %
same,Unsaturated fatty acid (UFA) total,[1]; [3],63.20ª %
same,MUFA C16:1n7c in rabbit meat,[1]; [4],1.89%
same,MUFA C16:1n9c in rabbit meat,[1]; [4],0.51%
same,MUFA C17:1n7c in rabbit meat,[1]; [4],0.22%
same,MUFA C18:1n9c in rabbit meat,[1]; [4],20.60^b %
same,MUFA C18:1n9t in rabbit meat,[1]; [4],1.08^b %
same,MUFA C20:1n9t in rabbit meat,[1]; [4],0.16^b %
same,Monounsaturated fatty acid (MUFA) total,[1]; [4],24.45%
same,PUFA C16:3n4c in rabbit meat,[1]; [4],0.13^b %
same,PUFA C18:2n6c (linoleic acid) in rabbit meat,[1]; [4],28.40^b %
same,PUFA C20:2n6c in rabbit meat,[1]; [4],0.44^b %
same,PUFA C20:3n6c in rabbit meat,[1]; [4],0.15%
same,PUFA C20:4n6c (arachidonic acid) in rabbit meat,[1]; [4],1.61^b %
same,PUFA C22:4n6c in rabbit meat,[1]; [4],0.39%
same,Polyunsaturated fatty acid (PUFA) total,[1]; [4],31.12^b %
same,SFA 9Methyl C14:0 in rabbit meat,[1]; [4],0.06%
same,SFA 12Methyl C13:0 in rabbit meat,[1]; [4],0.30^a %
same,SFA 13Methyl C14:0 in rabbit meat,[1]; [4],0.12ª %
same,SFA 14Methyl C15:0 in rabbit meat,[1]; [4],0.27%
same,SFA 14methyl C16:0 in rabbit meat,[1]; [4],0.11%
same,SFA C10:0 in rabbit meat,[1]; [4],0.20%
same,SFA C12:0 in rabbit meat,[1]; [4],1.71ª %
same,SFA C14:0 in rabbit meat,[1]; [4],2.16%
same,SFA C15:0 in rabbit meat,[1]; [4],0.52%
same,SFA C16:0 in rabbit meat,[1]; [4],30.16ª %
same,SFA C17:0 in rabbit meat,[1]; [4],0.46^b %
same,SFA C18:0 in rabbit meat,[1]; [4],8.22ª %
same,SFA C20:0 in rabbit meat,[1]; [4],0.11%
same,Saturated fatty acid (SFA) total,[1]; [4],44.48ª %
same,Unsaturated fatty acid (UFA) total,[1]; [4],55.57^b %
same,Shear force,[2]; [3],33.51 N/cm^2
same,Meat color Brightness L*,[2]; [3],55.34^b
same,Meat color Redness a*,[2]; [3],1.71ª
same,Meat color Yellowness b*,[2]; [3],8.35
same,pH45min,[2]; [3],6.77
same,pH24 h,[2]; [3],5.89
same,pH24 h decreased,[2]; [3],0.87
same,Drip loss,[2]; [3],3.17%
same,Shear force,[2]; [4],32.86 N/cm^2
same,Meat color Brightness L*,[2]; [4],55.82^ab
same,Meat color Redness a*,[2]; [4],1.56ª
same,Meat color Yellowness b*,[2]; [4],8.32
same,pH45min,[2]; [4],6.62
same,pH24 h,[2]; [4],5.87
same,pH24 h decreased,[2]; [4],0.76
same,Drip loss,[2]; [4],3.56%
